Like-named read-outs stand apart in the source and are kept apart here. Square brackets hold non-standard residues; d marks the D form. Peptide text beside a SMILES is read from it. * marks the point of attachment. Dolaproine = CO[C@@H]([C@@H]1CCCN1)[C@@H](C)C(=O)O; Dil = CC[C@H](C)[C@H](NC)[C@@H](CC(=O)O)OC; NMe2Val = CC(C)[C@@H](C(=O)*)N(C)C
Test system: HCC1954 breast ductal carcinoma
Test: Cell viability (Cell Titer Glo 2.0) in HCC1954, 120 hours
Type: cell-based
Conditions: for IC50[N—Me amide]/IC50[NH-amide]: HCC1954 5-Day Assay, N-methylation of the amide between P4 and P5
Method: HCC1954 breast ductal carcinoma and T47D cells (ATCC, Manassas, VA, USA) were seeded into 384-well white-walled culture plates and allowed to adhere for 2-4 hours. Cells were then treated at least in duplicate by addition of 5-fold serially diluted test articles prepared at 2× final concentration and incubated at 37° C. for 120 hours. Cell viability following treatment was determined by Cell Titer Glo 2.0 Assay (Promega, Madison, WI, USA) and normalized to non-treated controls. Dose-response relationships were analyzed using GraphPad Prism (La Jolla, CA, USA), and IC50 values were derived from non-linear regression analyses using a 4-parameter logistic equation.

[1] = Homo sapiens, HCC1954, 120 h, read-out: IC50 (nM), in vitro potency in HCC1954
[2] = Trastuzumab conjugate of the numbered linker-payload, HCC1954, read-out: ADC (Trastuzumab) IC50 in HCC1954 assay

| Compound | IC50 [1] [nM] | also measured |
| --- | --- | --- |
| CC[C@H](C)[C@@H]([C@@H](CC(=O)N1CCC[C@H]1[C@H](OC)[C@@H](C)C(=O)N(C)CCc1cccc(N)c1)OC)N(C)C(=O)[C@@H](NC(=O)[C@@H]1CCCCN1C)C(C)C [Compound 13, (S)-N-((S)-1-(((3R,4S,5S)-1-((S)-2-((IR,2R)-3-((3-aminophenethyl)(methyl)amino)-1-methoxy-2-methyl-3-oxopropyl)pyrrolidin-1-yl)-3-methoxy-5-methyl-1-oxoheptan-4-yl)(methyl)amino)-3-methyl-1-oxobutan-2-yl)-1-methylpiperidine-2-carboxamide] | < 5 |  |
| CC[C@H](C)[C@@H]([C@@H](CC(=O)N1CCC[C@H]1[C@H](OC)[C@@H](C)C(=O)N[C@H](C)[C@@H](O)c1ccccc1)OC)N(C)C(=O)[C@@H](NC(=O)[C@H](C(C)C)N(C)C)C(C)C [Auristatin E, reference compound] |  | IC50[N—Me amide]/IC50[NH-amide]: 23 |
| CC[C@H](C)[C@@H]([C@@H](CC(=O)N1CCC[C@H]1[C@H](OC)[C@@H](C)C(=O)N[C@@H](Cc1ccccc1)C(=O)OC)OC)N(C)C(=O)[C@@H](NC(=O)[C@H](C(C)C)N(C)C)C(C)C [Auristatin PHE, reference compound] (NMe2Val-V[Dil][Dolaproine]F-OMe) |  | IC50[N—Me amide]/IC50[NH-amide]: 139 |
| CC[C@H](C)[C@@H]([C@@H](CC(=O)N1CCC[C@H]1[C@H](OC)[C@@H](C)C(=O)N[C@@H](Cc1ccccc1)c1nccs1)OC)N(C)C(=O)[C@@H](NC(=O)[C@H](C(C)C)N(C)C)C(C)C [Dolastatin 10, dolastatin 10, reference compound] |  | IC50[N—Me amide]/IC50[NH-amide]: 240 |
| CC[C@H](C)[C@@H]([C@@H](CC(=O)N1CCC[C@H]1[C@H](OC)[C@@H](C)C(=O)N(C)CCc1ccccc1N)OC)N(C)C(=O)[C@@H](NC(=O)[C@@H](C(C)C)N(C)C)C(C)C [Compound 15, (S)-N-((3R,4S,5S)-1-((S)-2-((1R,2R)-3-((2-aminophenethyl)(methyl)amino)-1-methoxy-2-methyl-3-oxopropyl)pyrrolidin-1-yl)-3-methoxy-5-methyl-1-oxoheptan-4-yl)-2-((R)-2-(dimethylamino)-3-methylbutanamido)-N,3-dimethylbutanamide] | < 5 |  |
| CC[C@H](C)[C@@H]([C@@H](CC(=O)N1CCC[C@H]1[C@H](OC)[C@@H](C)C(=O)N(C)CCc1cccc(N)c1)OC)N(C)C(=O)[C@@H](NC(=O)C(C)(C)CN(C)C)C(C)C [Compound 5, (S)-N-((3R,4S,5S)-1-((S)-2-((1R,2R)-3-((3-aminophenethyl)(methyl)amino)-1-methoxy-2-methyl-3-oxopropyl)pyrrolidin-1-yl)-3-methoxy-5-methyl-1-oxoheptan-4-yl)-2-(3-(dimethylamino)-2,2-dimethylpropanamido)-N,3-dimethylbutanamide] | 5 to 10 |  |
| CC[C@H](C)[C@@H]([C@@H](CC(=O)N1CCC[C@H]1[C@H](OC)[C@@H](C)C(=O)N(C)CCc1ccc(N)cc1)OC)N(C)C(=O)[C@@H](NC(=O)CN(C)C)C(C)C [Compound 27, (S)-N-((3R,4S,5S)-1-((S)-2-((IR,2R)-3-((4-aminophenethyl)(methyl)amino)-1-methoxy-2-methyl-3-oxopropyl)pyrrolidin-1-yl)-3-methoxy-5-methyl-1-oxoheptan-4-yl)-2-(2-(dimethylamino)acetamido)-N,3-dimethylbutanamide] | < 5 |  |
| CC[C@H](C)[C@@H]([C@@H](CC(=O)N1CCC[C@H]1[C@H](OC)[C@@H](C)C(=O)N(C)CCc1cccc(NC(=O)[C@H](C)NC(=O)[C@H](C)NC(=O)CN2C(=O)C=CC2=O)c1)OC)N(C)C(=O)[C@@H](NC(=O)C(C)(C)N(C)C)C(C)C [Compound 32, (S)-2-(2-(dimethylamino)-2-methylpropanamido)-N-((3R,4S,5S)-1-((S)-2-((1R,2R)-3-((3-((S)-2-((S)-2-(2-(2,5-dioxo-2,5-dihydro-1H-pyrrol-1-yl)acetamido)propanamido)propanamido)phenethyl)(methyl)amino)-1-methoxy-2-methyl-3-oxopropyl)pyrrolidin-1-yl)-3-methoxy-5-methyl-1-oxoheptan-4-yl)-N,3-dimethylbutanamide 2,2,2-trifluoroacetate] |  | IC50 [2]: < 5 nM |
| CC[C@H](C)[C@@H]([C@@H](CC(=O)N1CCC[C@H]1[C@H](OC)[C@@H](C)C(=O)N(C)CCc1ccccc1N)OC)N(C)C(=O)[C@@H](NC(=O)[C@@H](C)N(C)C)C(C)C [Compound 17, (S)-N-((3R,4S,5S)-1-((S)-2-((1R,2R)-3-((2-aminophenethyl)(methyl)amino)-1-methoxy-2-methyl-3-oxopropyl)pyrrolidin-1-yl)-3-methoxy-5-methyl-1-oxoheptan-4-yl)-2-((R)-2-(dimethylamino)propanamido)-N,3-dimethylbutanamide] | < 5 |  |
| CC[C@H](C)[C@@H]([C@@H](CC(=O)N1CCC[C@H]1[C@H](OC)[C@@H](C)C(=O)N(C)CCc1cccc(NC(=O)[C@H](C)NC(=O)[C@H](C)NC(=O)CN2C(=O)C=CC2=O)c1)OC)N(C)C(=O)[C@@H](NC(=O)CN(C)C)C(C)C [Compound 31, (S)-2-(2-(dimethylamino)acetamido)-N-((3R,4S,5S)-1-((S)-2-((IR,2R)-3-((3-((S)-2-((S)-2-(2-(2,5-dioxo-2,5-dihydro-1H-pyrrol-1-yl)acetamido)propanamido)propanamido)phenethyl)(methyl)amino)-1-methoxy-2-methyl-3-oxopropyl)pyrrolidin-1-yl)-3-methoxy-5-methyl-1-oxoheptan-4-yl)-N,3-dimethylbutanamide 2,2,2-trifluoroacetate] |  | IC50 [2]: < 5 nM |
| CC[C@H](C)[C@@H]([C@@H](CC(=O)N1CCC[C@H]1[C@H](OC)[C@@H](C)C(=O)N(C)CCc1cccc(N)c1)OC)N(C)C(=O)[C@@H](NC(=O)[C@@H]1CCCN(C)C1)C(C)C [Compound 6, (R)-N-((S)-1-(((3R,4S,5S)-1-((S)-2-((IR,2R)-3-((3-aminophenethyl)(methyl)amino)-1-methoxy-2-methyl-3-oxopropyl)pyrrolidin-1-yl)-3-methoxy-5-methyl-1-oxoheptan-4-yl)(methyl)amino)-3-methyl-1-oxobutan-2-yl)-1-methylpiperidine-3-carboxamide] | > 10 |  |
| CC[C@H](C)[C@@H]([C@@H](CC(=O)N1CCC[C@H]1[C@H](OC)[C@@H](C)C(=O)N(C)CCc1cccc(NC(=O)[C@H](C)NC(=O)[C@H](C)NC(=O)CN2C(=O)C=CC2=O)c1)OC)N(C)C(=O)[C@@H](NC(=O)C(C)(C)CN(C)C)C(C)C [Compound 38, (S)-2-(3-(dimethylamino)-2,2-dimethylpropanamido)-N-((3R,4S,5S)-1-((S)-2-((1R,2R)-3-((3-((S)-2-((S)-2-(2-(2,5-dioxo-2,5-dihydro-1H-pyrrol-1-yl)acetamido)propanamido)propanamido)phenethyl)(methyl)amino)-1-methoxy-2-methyl-3-oxopropyl)pyrrolidin-1-yl)-3-methoxy-5-methyl-1-oxoheptan-4-yl)-N,3-dimethylbutanamide 2,2,2-trifluoroacetate] |  | IC50 [2]: > 10 nM |
| CC[C@H](C)[C@@H]([C@@H](CC(=O)N1CCC[C@H]1[C@H](OC)[C@@H](C)C(=O)N(C)CCc1cccc(N)c1)OC)N(C)C(=O)[C@@H](NC(=O)[C@@H]1CCCN1C)C(C)C [Compound 8] | < 5 |  |

Reference: US20260131016A1, “NOVEL AURISTATIN ANALOGS AND IMMUNOCONJUGATES THEREOF” (ADCENTRX THERAPEUTICS INC., priority 2021, published 2026)
